US20050049299A1, “Selective inhibitors of stat-3 activation and uses thereof” (priority 2003, published 2005)

Assays:
Type in all cases: cell-based, human
STAT1 phosphorylation = test: IFN-α-inducible STAT1 phosphorylation in U266 cells (Western blot); details: 50 μM curcumin, IFN-α 10 ng/ml
Description: U266 cells (2×10^6) were treated with the indicated concentrations of curcumin for 1 h, or treated with 50 μM curcumin for the indicated durations and levels of phosphorylated-STAT3 (upper panel) and STAT3 (lower panel) were examined in whole cell extracts by Western Blotting. […] U266 cells (2×10^6) were treated with 50 μM curcumin for indicated durations, and examined for phosphorylated and nonphosphorylated-STAT3, and STAT5. […] U266 cells (2×10^6) were preincubated with curcumin (50 μM) for indicated durations before treatment with IFN-α (10 ng/ml) for additional 30 min and then examined for phosphorylated and nonphosphorylated-STAT1.
For detection of STAT proteins, whole-cell extracts were prepared by lysing the curcumin-treated cells in lysis buffer (20 mM Tris, pH 7.4, 250 mM NaCl, 2 mM EDTA, pH 8.0, 0.1% Triton-X100, 0.01 mg/ml aprotinin, 0.005 mg/ml leupeptin, 0.4 mM PMSF, and 4 mM NaVO4). Lysates were then spun at 14000 rpm for 10 min to remove insoluble material, and resolved on a 7.5% gel. After electrophoresis, the proteins were electrotransferred to a nitrocellulose membrane, blocked with 5% nonfat milk, and probed with anti-STAT antibodies (1:1000) overnight at 4° C. The blot was washed, exposed to HRP-conjugated secondary antibodies for 1 h, and finally examined by chemiluminescence (ECL, Amersham Pharmacia Biotech. Arlington Heights, Ill.). […]

[1] = tested on: STAT3 nuclear translocation; test: Immunocytochemistry for STAT3 localization in U266 cells; details: 50 μM, 60 minutes
Description: U266 cells were incubated alone or with curcumin (50 μM) for 60 minutes and then analyzed for the distribution of STAT3 by immunocytochemistry (originial magnification, 200X).
FIGS. 6A-C show& the effect of cell permeable STAT3 inhibitor peptide (STAT3iP) on STAT3 phosphorylation and cell viability in U266 cells. […] Results are shown as mean (±s.d. indicated by error bar) of absorbance (570 nm) of triplicate cultures compared to the untreated control.
Curcumin-treated multiple myeloma cells were plated on a glass slide by centrifugation using a Cytospin 4 (Thermoshendon, Pittsburg, Pa.), air-dried for 1 h at room temperature, and fixed with cold acetone. After a brief washing in PBS, slides were blocked with 5% normal goat serum for 1 h and then incubated with rabbit polyclonal anti-human STAT3 antibody (dilution, 1:100). After overnight incubation, the slides were washed and then incubated with goat anti-rabbit IgG-Alexa 594 (1:100) for 1 h and counter-stained for nuclei with Hoechst (50 ng/ml) for 5 min. Stained slides were mounted with mounting medium (Sigma Co.) and analyzed under an epifluorescence microscope (Labophot-2, Nikon, Tokyo, Japan). Pictures were captured using Photometrics Coolsnap CF color camera (Nikon, Lewisville, Tex.) and MetaMorph version 4.6.5 software (Universal Imaging Corp., Downingtown, Pa.). […]

MM.1 cells = test: IL-6-induced proliferation of MM.1 cells; details: curcumin 10 μM, 48 h, serum-free
Description: FIGS. 7A-B show& that IL-6 induces proliferation of human multiple myeloma cells and curcumin inhibits it. […] Cell proliferation assays were performed as described below. Results are shown as mean (±s.d.) of percent [^3H] thymidine incorporation or percent proliferation by MTT of triplicate cultures compared to the untreated control.
The antiproliferative effects of curcumin against different multiple myeloma cell lines were determined by the MTT dye uptake method as described earlier (28). Briefly, the cells (5000/well) were incubated in triplicate in a 96-well plate in the presence or absence of indicated test samples in a final volume of 0.1 ml for 24 h at 37° C. […] The OD at 570 nm was measured using a 96-well multiscanner autoreader (Dynatech MR 5000), with the extraction buffer serving as blank. Percent cell viability cell viability was calculated using the following formula: Percent cell viability=(OD of the experiment samples/OD of the control)×100.
The antiproliferative effects of curcumin were also monitored by the thymidine incorporation method. […] Six hours before the completion of experiment, cells were pulse treated with 0.5 μCi [^3H]thymidine, and the uptake of [^3H]thymidine was monitored using a Matrix-9600 β-counter (Packard Instruments, Downers Grove, Ill.). […]
Whether curcumin suppresses the proliferative effects of IL-6 was determined.

MM.1S and MM.1R cells = test: Cell growth of dexamethasone-sensitive and dexamethasone-resistant MM cells (MTT); details: curcumin 10 μM, 3 days
Description: MM.1S and MM.1R cells were cultured with dexamethasone (1 μM) in the absence or presence of curcumin (10 μM) for 3 days and cell viability was checked by the MTT method. Results are shown as mean (±s.d. indicated by error bar) of percent cell growth of triplicate cultures compared to the untreated control.
The antiproliferative effects of curcumin against different multiple myeloma cell lines were determined by the MTT dye uptake method as described earlier (28). Briefly, the cells (5000/well) were incubated in triplicate in a 96-well plate in the presence or absence of indicated test samples in a final volume of 0.1 ml for 24 h at 37° C. Thereafter, 0.025 ml of MTT solution (5 mg/ml in PBS) was added to each well. After a 2-h incubation at 37° C., 0.1 ml of the extraction buffer (20% SDS, 50% dimethylformamide) was added and the extract incubated overnight at 37° C. for solubilization of formazan crystals. The OD at 570 nm was measured using a 96-well multiscanner autoreader (Dynatech MR 5000), with the extraction buffer serving as blank. Percent cell viability cell viability was calculated using the following formula: Percent cell viability=(OD of the experiment samples/OD of the control)×100.
Multiple myeloma treated with dex gradually develops resistance to this drug.

multiple myeloma cells = test: Proliferation of multiple myeloma cells, curcumin vs AG490 (data not shown); details: 100 μM, 24 hours (data not shown)
STAT3 phosphorylation = test: Phosphorylated STAT3 in HNSCC cells (immunocytochemistry, horseradish peroxidase stain); details: 50 μM, 2 hrs
Description: MDA 1986LN, MDA 686LN and JMAR cells were incubated with either media alone or with curcumin (50 μM) for 2 hrs and then analyzed by immunocytochemistry using Alexa fluorochrome for the distribution of STAT3 (original magnification ×200). […] The same procedure as mentioned above was performed on the same cells and the p-STAT3 analyzed by immunocytochemistry using horse radish peroxidase stain (original magnification ×200).
To further confirm that curcumin inhibited STAT3 phosphorylation, the same curcumin-treated and untreated cells were analyzed for phosphorylated STAT3 by immunocytochemistry using horseradish peroxidase stain. […] These findings confirmed that curcumin inhibited STAT3 phosphorylation.

Question: Which results are given for COc1cc(/C=C/C(=O)CC(=O)/C=C/c2ccc(O)c(OC)c2)ccc1O [curcumin, diferuloylmethane]?
Answer: IFN-α-induced STAT1 phosphorylation (STAT1 phosphorylation): suppressed the phosphorylation in a time-dependent manner; translocation of STAT3 to the nucleus [1]: prevented the translocation of the STAT3 to the nucleus; IL-6-induced cell proliferation in MM.1 cells (MM.1 cells): inhibited IL-6-induced cell proliferation; proliferation of dex-resistant and dex-sensitive multiple myeloma cells (MM.1S and MM.1R cells): inhibited the proliferation of dex-resistant and dex-sensitive multiple myeloma cells similarly; proliferation of multiple myeloma cells (multiple myeloma cells): completely suppressed; phosphorylation of STAT3 (immunocytochemistry) (STAT3 phosphorylation; JMAR cells): no inhibition of STAT3 phosphorylation was observed; phosphorylation of STAT3 (immunocytochemistry) (STAT3 phosphorylation; MDA 1986LN and MDA 686LN cells): inhibited the phosphorylation of STAT3
